Source: paper PMC4764579, “Structural insights into the mechanism of activation of the TRPV1 channel by a membrane-bound tarantula toxin” (eLife, 2016)
Positions of bridges follow the written chain, without caps; N, C: chain ends. Residues, ends and D or L forms follow the SMILES beside them.

Target: T1, rat TRPV1 (Rattus norvegicus, UniProt O35433)
T1 construct: expressed in transfected cells; host or cells: Xenopus laevis oocytes (cRNA injection, pGEM-HE vector)
Assay: Two-electrode voltage clamp recordings of oocytes expressing TRPV1, toxin current normalised to saturating capsaicin
Format: cell-based
Settings: concentration-response, see Figure 3F
Text: Figure 3. Validation of the proposed structural model of the TRPV1-DkTx complex. Close-up of K1 (A) and K2 (B) in the top-ranking ROSETTA model of DkTx bound to TRPV1. Side chains of TRPV1 residues where mutation disrupts DkTx-induced channel activation (I599, F649, A657 and F659) ([Bohlen et al., 2010]) are highlighted in purple. (C) Representative time courses of TRPV1 activation at +120 mV by either DkTx (left panel), K1K1 (middle panel) or K2K2 (right panel) measured from a train of voltage-ramps in the whole-cell configuration with the TRPV1 expressed in HEK cells. […] Fractional dissociation 1 min after toxin removal was quantified across cells as the current amplitude 1 min after toxin removal divided by the steady-state current amplitude in the presence of the toxin. […] Activation of the full-length TRPV1 channel by the toxin at different concentrations was measured in oocytes at a holding voltage of −60 mV. […]
Xenopus laevis oocytes were surgically removed and gently shaken for 60 min in a solution of 82.5 mM NaCl, 2.5 mM KCl, 1 mM MgCl2, 5 mM HEPES and 2 mg/mL collagenase. […] TRPV1 activity was recorded under voltage clamp using a two-electrode voltage clamp (OC-725C; Warner Instruments) in a 150-μL recording chamber. The recorded data were filtered at 1 kHz and digitized at 5 kHz using a digidata analog/digital converter and pClamp software (Molecular Devices). […]

T1 sequence (O35433 whole entry): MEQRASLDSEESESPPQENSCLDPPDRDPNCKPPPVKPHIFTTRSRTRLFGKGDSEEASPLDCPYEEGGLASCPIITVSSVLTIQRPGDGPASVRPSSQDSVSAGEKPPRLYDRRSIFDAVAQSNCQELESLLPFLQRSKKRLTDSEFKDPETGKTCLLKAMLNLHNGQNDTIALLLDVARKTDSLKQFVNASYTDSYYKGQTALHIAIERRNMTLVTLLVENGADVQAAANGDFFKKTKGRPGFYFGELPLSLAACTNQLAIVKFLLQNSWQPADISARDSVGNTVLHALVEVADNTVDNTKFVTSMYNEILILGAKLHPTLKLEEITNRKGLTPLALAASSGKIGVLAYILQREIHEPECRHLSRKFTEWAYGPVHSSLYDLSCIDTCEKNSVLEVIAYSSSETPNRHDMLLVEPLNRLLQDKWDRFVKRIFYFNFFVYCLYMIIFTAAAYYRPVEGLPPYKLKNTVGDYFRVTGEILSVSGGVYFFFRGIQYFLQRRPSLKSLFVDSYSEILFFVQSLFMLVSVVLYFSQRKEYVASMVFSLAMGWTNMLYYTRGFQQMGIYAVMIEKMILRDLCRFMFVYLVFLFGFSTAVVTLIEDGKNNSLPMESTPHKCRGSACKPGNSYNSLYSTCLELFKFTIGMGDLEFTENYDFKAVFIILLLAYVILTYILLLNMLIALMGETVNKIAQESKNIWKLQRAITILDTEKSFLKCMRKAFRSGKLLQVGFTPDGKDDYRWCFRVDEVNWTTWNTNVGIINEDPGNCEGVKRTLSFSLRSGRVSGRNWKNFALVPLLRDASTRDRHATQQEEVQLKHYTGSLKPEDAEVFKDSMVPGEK

Question: Which “concentration range where activation of TRPV1 saturates (in words)” value does the source give for `CC[C@H](C)[C@@H]1NC(=O)[C@H](Cc2ccccc2)NC(=O)[C@H](C)NC(=O)[C@H](CC(C)C)NC(=O)[C@@H]2CCCN2C(=O)[C@@H]2CSSC[C@@H]3NC(=O)[C@H](C(C)C)NC(=O)[C@H](CCC(=O)O)NC(=O)CNC(=O)[C@H](CCC(=O)O)NC(=O)[C@H](CCCCN)NC(=O)[C@H](C)NC(=O)[C@@H](NC(=O)[C@@H](N)CC(N)=O)CSSC[C@H](NC(=O)[C@H](CSSC[C@@H](C(=O)N[C@@H](CCC(=O)O)C(=O)N[C@@H](CCCCN)C(=O)N[C@@H](Cc4ccc(O)cc4)C(=O)N[C@@H](CCCNC(=N)N)C(=O)O)NC(=O)[C@H](Cc4ccc(O)cc4)NC(=O)[C@@H]4CCCN4C1=O)NC(=O)[C@H](CCCCN)NC(=O)[C@H](CO)NC(=O)CNC(=O)[C@H](Cc1c[nH]c4ccccc14)NC(=O)CNC3=O)C(=O)N[C@@H](Cc1c[nH]cn1)C(=O)NCC(=O)N[C@@H](CC(C)C)C(=O)N[C@@H](CC(=O)O)C(=O)N2` [K2] (H-NCAKEGEVCGWGSKCCHGLDCPLAFIPYCEKYR-OH; disulfide 2-16, 9-21, 15-29 (inferred); N-terminus and C-terminus assumed) here?
Answer: Its value is “low micromolar range”.
